PMC12631982, “Expected and Unexpected “Guests” at the Active Site of Human Orotidine 5′-Monophosphate Decarboxylase” (Biochemistry, 2025)
Several values for one entry are separate records, joined by “and”; a condition that tells them apart may be missing. Equal values may be shown once. Entries after “also recorded” stand apart in the source; their conditions may differ. Read-outs that look alike come from different tables or passages of the source.

Assays:
human OMPDC [1] = molecular target: T1, human OMPDC (Homo sapiens, UniProt P11172); assay: Thermodynamic ITC ligand binding to human OMPDC wild-type; details: for ΔH (first binding phase, K D1) / ΔH (second binding phase, K D2): Sedphat analysis; for binding detected by thermodynamic ITC: 25 °C
T1 construct: Overexpression of human OMPDC in Escherichia coli; made in house; host or cells: Escherichia coli
Experimental: (§1) Steady-state kinetics of OMPDC conversion and thermodynamics of ligand binding were conducted using a PEAK-ITC instrument (Malvern Panalytical) in 20 mM HEPES/NaOH, pH 7.4, at 25 °C. The substrate OMP trisodium salt and the ligands UMP, GMP, XMP, and TMP were purchased from Sigma-Aldrich (purity >99%).
Isothermal titration calorimetry (ITC) is used to determine the dissociation constant (K D) of a protein–ligand interaction by measuring the heat released or absorbed during binding. In practice, the ligand is sequentially titrated into a solution containing the protein in the reaction cell. As the binding sites become saturated over time, no additional heat changes are detected. The resulting thermogram is then converted into a binding isotherm, which can be used to calculate all relevant thermodynamic parameters. Thereby, the (K D) follows the general reaction, where the enzyme (E), by addition of a ligand (L), forms an enzyme-ligand complex (EL) E+L↔KaEL
The following parameters for the binding experiments were used:
OMPDC with UMP: 195 μM OMPDC, 2.08 mM UMP, buffer (HEPES 0.02 M, pH 7.4), reference power ITC 8 μcal/s, stirring speed 750 rpm, cell temperature 25 °C, one injection of 0.4 μL and 18 injections of 2 μL UMP, 120 s spacing.*
OMPDC with 5-methyl OMP: 195 μM OMPDC, 4.61 mM 5-methyl OMP, buffer (HEPES 0.02 M, pH 7.4), reference power ITC 10 μcal/s, stirring speed 750 rpm, cell temperature 25 °C, 1 injection of 0.4 μL and 18 injections of 2 μL 5-methyl OMP, 120 s spacing.*
OMPDC with dTMP: 186 μM OMPDC, 5 mM dTMP, buffer (HEPES 0.02 M, pH 7.4), reference power ITC 8 μcal/s, stirring speed 750 rpm, cell temperature 25 °C, 1 injection of 0.4 μL and 18 injections of 2 μL dTMP, 120 s spacing.
OMPDC with XMP: 194 μM OMPDC, 1.5 mM XMP, buffer (HEPES 0.02 M, pH 7.4), reference power ITC 8 μcal/s, stirring speed 750 rpm, cell temperature 25 °C, 1 injection of 0.4 μL and 18 injections of 2 μL XMP 120 s spacing.*
OMPDC with YMP: 200 μM OMPDC, 2.03 mM YMP, buffer (HEPES 0.02 M, pH 7.4), reference power ITC 8 μcal/s, stirring speed 750 rpm, cell temperature 25 °C, 1 injection of 0.4 μL and 18 injections of 2 μL YMP, 120 s spacing.
OMPDC with CMP: 200 μM OMPDC, 1.80 mM CMP, buffer (HEPES 0.02 M, pH 7.4), reference power ITC 10 μcal/s, stirring speed 750 rpm, cell temperature 25 °C, 1 injection of 0.4 μL and 18 injections of 2 μL CMP, 120 s spacing.*
OMPDC with 2′-deoxy UMP: 211 μM OMPDC, 9.04 mM 2′-deoxy UMP, buffer (HEPES 0.02 M, pH 7.4), reference power ITC 10 μcal/s, stirring speed 750 rpm, cell temperature 25 °C, 1 injection of 0.4 μL and 18 injections of 2 μL 2′-deoxy UMP, 120 s spacing.
OMPDC with GMP: 184 μM OMPDC, 10 mM GMP, buffer (HEPES 0.02 M, pH 7.4), reference power ITC 8 μcal/s, stirring speed 750 rpm, cell temperature 25 °C, 1 injection of 0.4 μL and 18 injections of 2 μL GMP, 120 s spacing.
(§2) The raw files were analyzed using the software provided by the instrument manufacturer. Marked data sets (*) were integrated using NitPic version 1.2.7 and fitted with Sedphat version 14.0. Final graphs were created with OriginPro 2020.

human OMPDC [2] = molecular target: T1, human OMPDC; assay: ITC-based steady-state kinetics / activity assay of OMPDC; format: biochemical; details: wild-type
Experimental: as §1
(§3) For steady-state kinetic analysis, 20 μM OMPDC and 1 mM OMP were used at a cell temperature of 25 °C. The reference power was set to 8 μcal/s, the stirring power to 750 rpm, and two injections of 10 μL each were performed. For competitive inhibition studies, the substrate concentration remained the same while the ligand concentration was varied. The experiments are summarized below:
OMPDC with OMP and 5-methyl OMP: 70/100 μM OMPDC, 1 mM OMP, 5-methyl OMP (1 mM), buffer (HEPES 0.02 M, pH 7.4), reference power ITC 8 μcal/s, stirring speed 750 rpm, cell temperature 25 °C, 2 injections of 10 μL each.
OMPDC with OMP: 20 μM OMPDC, 1 mM OMP, buffer (HEPES 0.02 M, pH 7.4), reference power ITC 8 μcal/s, stirring speed 750 rpm, cell temperature 25 °C, 2 injections of 10 μL each.
The data sets were evaluated via Microsoft Excel, and the decarboxylation rates were fitted in OriginPro 2020 according to the Hill equation.

human OMPDC [3] = molecular target: T1, human OMPDC; assay: X-ray crystallography, soaking / cocrystallization of ligands; details: wild-type, in crystallo
Experimental: OMPDC crystals were grown for at least 3 days at 20 °C using the hanging drop diffusion method with Crystalgen SuperClear Plates (Jena Bioscience) as previously described. , The crystals were gradually transferred to increasing concentrations of cryo-solution (100 mM Tris/HCl pH 8.0, 2 M (NH4)2SO4, 10 mM glutathione pH 8.0, 0.25–1 M L-proline). After the crystals were adjusted to 1 M L-proline cryo-solution, various ligands were used for soaking experiments. […] The crystals were flash-cooled in liquid nitrogen and stored at these temperatures until the diffraction experiments were conducted.
OMPDC was also cocrystallized with XMP, UMP, and GMP. For this, a final protein concentration of 4.5 mg/mL and 25 mM ligand were used in 20 mM HEPES/NaOH, pH 7.4. The solution was mixed in a 1 + 1 ratio with the reservoir solution. Plates were stored at 20 °C, and crystals grew overnight. After 1 week, crystals were transferred to cryo-solution supplemented with 25 mM XMP/UMP/GMP. The cocrystallized crystals were flash-cooled in liquid nitrogen and stored until use.
The structures of OMPDC with the different ligands were determined by processing the diffraction data with the XDS program suite. […]

OMPDC Thr321Asn [4] = molecular target: T2, OMPDC Thr321Asn (Homo sapiens, UniProt P11172, T321N); assay: Kinetic ITC with OMPDC variant Thr321Asn; format: biochemical
T2 construct: OMPDC Thr321Asn was generated via site-directed mutagenesis; made in house
Experimental: as §3, with “varied.” for “varied. The experiments are summarized below:”

OMPDC Thr321Asn [5] = molecular target: T2, OMPDC Thr321Asn; assay: Thermodynamic ITC ligand binding to OMPDC variant Thr321Asn
Experimental: as §1
OMPDC T321N′ with dTMP: 211 μM OMPDC T321N′, 2 mM dTMP, buffer (HEPES 0.02 M, pH 7.4), reference power ITC 10 μcal/s, stirring speed 750 rpm, cell temperature 25 °C, 1 injection of 0.4 μL and 18 injections of 2 μL dTMP, 120 s spacing.
as §2

[6] = ITC at 25 °C, wild-type, first of two dissociation constants (Sedphat analysis), read-out: K D1
[7] = ITC at 25 °C, wild-type, second of two dissociation constants (Sedphat analysis), read-out: K D2
[8] = ITC at 25 °C, 20 mM HEPES pH 7.4, wild-type, single dissociation constant, read-out: K D

`O=c1ccn([C@@H]2O[C@H](COP(=O)(O)O)[C@@H](O)[C@H]2O)c(=O)[nH]1` [UMP, uridine 5′-monophosphate] was tested, and the “n (stoichiometry)” value (human OMPDC [1]; ITC at 25 °C, wild-type) was 0.98 ± 0.01, the “ΔH (first binding phase, K D1)” value (human OMPDC [1]; ITC at 25 °C, wild-type) was “–1.03 ± 0.06 kcal/mol” and the “ΔH (second binding phase, K D2)” value (human OMPDC [1]; ITC at 25 °C, wild-type) was “–2.1 ± 0.1 kcal/mol”. The Kd (human OMPDC [1]; [6]) was 2.6 ± 1.2 µM, the Kd (human OMPDC [1]; [7]) was 6.7 ± 0.8 µM and the Kd (human OMPDC [1]; ITC, wild-type, second of two dissociation constants, read-out: Dissociation constant KD2) was 6.73 µM.
In the case of `Cc1c(C(=O)O)n(C2OC(COP(=O)(O)O)C(O)C2O)c(=O)[nH]c1=O` (centres unmarked) [5-MeOMP, 5-methyl OMP], the Kd (human OMPDC [1]; [8]) is reported as 0.404 µM and 0.4 µM, the “n (stoichiometry)” value (human OMPDC [1]; ITC at 25 °C, wild-type) is reported as 1.54 ± 0.01 and the ΔG (human OMPDC [1]; ITC at 25 °C, wild-type) is reported as “–8.78 ± 0.19 kcal/mol”. For the same molecule, the ΔH (human OMPDC [1]; ITC at 25 °C, wild-type) was “–1.20 ± 0.03 kcal/mol”, the “–TΔS” value (human OMPDC [1]; ITC at 25 °C, wild-type) was “–7.58 ± 0.26 kcal/mol” and the enzymatic turnover (human OMPDC [2]) was “unable to detect enzymatic turnover”.
For `O=c1[nH]c(=O)c2ncn([C@@H]3O[C@H](COP(=O)(O)O)[C@@H](O)[C@H]3O)c2[nH]1` [XMP, xanthosine-5′-monophosphate], the “ΔH (first binding phase, K D1)” value (human OMPDC [1]; ITC at 25 °C, wild-type) was “–1.86 ± 0.10 kcal/mol”, the “ΔH (second binding phase, K D2)” value (human OMPDC [1]; ITC at 25 °C, wild-type) was “–5.57 ± 0.07 kcal/mol” and the Kd (human OMPDC [1]; [6]) was 0.21 ± 0.03 µM. For the same molecule, the Kd (human OMPDC [1]; [7]) was 0.18 ± 0.02 µM, the Kd (human OMPDC [1]; ITC, wild-type, first of two dissociation constants, read-out: Dissociation constant KD1) was 0.213 µM and the Kd (human OMPDC [1]; ITC, wild-type, second of two dissociation constants, read-out: K D2) was 0.182 ± 0.018 µM.
In the case of `Nc1nc2c(ncn2[C@@H]2O[C@H](COP(=O)(O)O)[C@@H](O)[C@H]2O)c(=O)[nH]1` [GMP, guanosine-5′-monophosphate], the “binding detected by thermodynamic ITC” value (human OMPDC [1]; wild-type) is reported as “No binding could be detected; also recorded: no measurable binding heat was detected; also recorded: did not bind at all” and the “ligand bound in crystal structure” value (human OMPDC [3]) is reported as “no ligand was bound to the active site”.
In the case of `O=c1ccn([C@H]2C[C@H](O)[C@@H](COP(=O)(O)O)O2)c(=O)[nH]1` [2′-deoxy UMP, 2′-deoxy uridine 5′-monophosphate], the “binding detected by thermodynamic ITC” value (human OMPDC [1]; wild-type) is reported as “no binding” and the “binding detected by thermodynamic ITC” value (human OMPDC [1]; wild-type, listed as deoxy UMP) is reported as “No binding could be detected”.
With `O=C(O)c1cc(=O)[nH]c(=O)n1[C@H]1C[C@H](O)[C@@H](COP(=O)(O)O)O1` [2′-deoxy OMP] the enzymatic activity (OMPDC Thr321Asn [4]) was “too low to be reliably measured”, the enzymatic turnover (human OMPDC [2]) was “no binding or turnover was detected” and the “ligand bound in crystal structure” value (human OMPDC [3]) was “does not bind”.
With `Nc1ccn([C@@H]2O[C@H](COP(=O)(O)O)[C@@H](O)[C@H]2O)c(=O)n1` [CMP, cytidine-5′-monophosphate] the “ΔH (first binding phase, K D1)” value (human OMPDC [1]; ITC at 25 °C, wild-type) was “–2.30 ± 0.08 kcal/mol”, the “ΔH (second binding phase, K D2)” value (human OMPDC [1]; ITC at 25 °C, wild-type) was “–7.08 ± 0.56 kcal/mol” and the Kd (human OMPDC [1]; [6]) was 4.73 ± 1.09 µM. For the same molecule, the Kd (human OMPDC [1]; [7]) was 8.33 ± 1.06 µM.
In the case of `Cc1cn([C@H]2C[C@H](O)[C@@H](COP(=O)(O)O)O2)c(=O)[nH]c1=O` [dTMP, thymidine-5′-monophosphate], the Kd (OMPDC Thr321Asn [5]; ITC) is reported as 0.431 ± 0.044 µM, the Kd (OMPDC Thr321Asn [5]; ITC at 25 °C) is reported as 0.43 ± 0.04 µM and the “n (stoichiometry)” value (OMPDC Thr321Asn [5]; ITC at 25 °C) is reported as 0.64 ± 0.02. The ΔG (OMPDC Thr321Asn [5]; ITC at 25 °C) was “–8.69 ± 0.08 kcal/mol”, the ΔH (OMPDC Thr321Asn [5]; ITC at 25 °C) was “–14.3 ± 0.1 kcal/mol” and the “–TΔS” value (OMPDC Thr321Asn [5]; ITC at 25 °C) was 5.60 ± 0.06 kcal/mol. The Kd (human OMPDC [1]; [8]) was 119 µM, the “n (stoichiometry)” value (human OMPDC [1]; ITC at 25 °C, wild-type) was 0.64 ± 0.03 and the ΔG (human OMPDC [1]; ITC at 25 °C, wild-type) was “–5.37 ± 0.09 kcal/mol”. The ΔH (human OMPDC [1]; ITC at 25 °C, wild-type) was “–4.74 ± 0.29 kcal/mol”, the “–TΔS” value (human OMPDC [1]; ITC at 25 °C, wild-type) was “–0.63 ± 0.88 kcal/mol” and the Kd (human OMPDC [1]; ITC at 25 °C, wild-type, single dissociation constant, read-out: Dissociation constant (KD)) was 118 µM.
